The test system of this assay is B cells in human blood. The assay is described as follows: Inhibition of B cell activation in whole blood measured by CD69 expression. The class given is cell-based. Here is the method:
Inhibition of B Cell Activation in Whole Blood Measured by CD69 Expression
A procedure to test the ability of Btk inhibitors to suppress B cell receptor-mediated activation of B cells in human blood is as follows:
Human whole blood (HWB) is obtained from healthy volunteers, with the following restrictions: 24 hr drug-free, non-smokers. Blood is collected by venipuncture into Vacutainer tubes anticoagulated with sodium heparin. Test compounds are diluted to […] the desired starting drug concentration in PBS (20×), followed by three-fold serial dilutions in 10% DMSO in PBS to produce a nine point dose-response curve. 5.5 μl of each compound dilution is added in duplicate to a 2 ml96-well V bottom plate (Analytical Sales and Services, #59623-23); 5.5 μl of 10% DMSO in PBS is added to control and no-stimulus wells. HWB (100 μl) is added to each well, and after mixing the plates are incubated at 37 C, 5% CO2, 100% humidity for 30 minutes. Goat F(ab′)2 anti-human IgM (Southern Biotech, #2022-14) (10 μl of a […] solution, 50 μg/ml final concentration) is added to each well (except the no-stimulus wells) with mixing and the plates are incubated for an additional 20 hours.
At the end of the 20 hour incubation, samples are incubated with florescent-probe-labeled anti-bodies (15 μl PE Mouse anti-Human CD20, BD Pharmingen, #555623, and/or 20 ul APC Mouse anti-Human CD69, BD Pharmingen #555533) for 30 minutes, at 37 C, 5% CO2, 100% humidity. Included are induced control, unstained and single stains for compensation adjustments and initial voltage settings. Samples are then lysed with 1 ml of 1× Pharmingen Lyse Buffer (BD Pharmingen #555899), and plates are centrifuged at 1800 rpm for 5 minutes. Supernatants are removed via suction and the remaining pellets are lysed again with another 1 ml of 1× Pharmingen Lyse Buffer, and plates are spun down as before. Supernatants are aspirated and remaining pellets are washed in FACs buffer (PBS+1% FBS). After a final spin, the supernantants are removed and pellets are resuspended in 180 μl of FACs buffer. Samples are transferred to a 96 well plate suitable to be run on the HTS 96 well system on the BD LSR II flow cytometer.
Using appropriate excitation and emission wavelengths for the fluorophores used, data are acquired and percent positive cell values are obtained using Cell Quest Software. Results are initially analyzed by FACS analysis software (Flow Jo). […] The IC50 values are calculated using XLfit software version 3, equation 201.
Representative compound data for this assay are listed below in Table II.

Setting [1] is: CD69-positive, CD20-positive cells after anti-IgM stimulation, human whole blood, 20 hours, read-out: Human Whole Blood.

Counter-ions that a name gives are not always drawn. Like-named read-outs stand apart in the source and are kept apart here.

For the compound `CN1CCC(c2ccc(Nc3cc(-c4cccc(-n5ccc6cc(C(C)(C)C#N)cc(F)c6c5=O)c4CO)nn(C)c3=O)nc2)C1` (stereo in doubt) [I-89, 2-[8-Fluoro-2-(2-hydroxymethyl-3-{1-methyl-5-[5-((S)-1-methyl-pyrrolidin-3-yl)-pyridin-2-ylamino]-6-oxo-1,6-dihydro-pyridazin-3-yl}-phenyl)-1-oxo-1,2-dihydro-isoquinolin-6-yl]-2-methyl-propionitrile], the IC50 under setting [1] came to 485 nM.
With `Cn1nc(-c2cccc(-n3ncc4cc(C(C)(C)C)cc(F)c4c3=O)c2CO)cc(Nc2ccc(C(=O)N3CCOCC3)cn2)c1=O` [I-2, 6-tert-Butyl-8-fluoro-2-(2-hydroxymethyl-3-{1-methyl-5-[5-(morpholine-4-carbonyl)-pyridin-2-ylamino]-6-oxo-1,6-dihydro-pyridazin-3-yl}-phenyl)-2H-phthalazin-1-one], the IC50 (Homo sapiens, 20 h, read-out: Human Whole Blood) came to 14 nM.
For the compound `CN(C)C(=O)c1ccc(Nc2cc(-c3cccc(-n4ncc5cc(C(C)(C)C)cc(F)c5c4=O)c3CO)nn(C)c2=O)nc1` [I-10, 6-{6-[3-(6-tert-Butyl-8-fluoro-1-oxo-1H-phthalazin-2-yl)-2-hydroxymethyl-phenyl]-2-methyl-3-oxo-2,3-dihydro-pyridazin-4-ylamino}-N,N-dimethyl-nicotinamide], the IC50 (Homo sapiens, 20 h, read-out: Human Whole Blood, CD69-positive, CD20-positive cells after anti-IgM stimulation, human whole blood, 20 hours) worked out at 19 nM.
Take `Cn1nc(-c2cccc(-n3ncc4cc(C(C)(C)C)cc(F)c4c3=O)c2CO)cc(Nc2ccc(OC(C)(C)CO)cn2)c1=O` [I-12, 6-tert-butyl-8-fluoro-2-(3-{5-[5-(2-hydroxy-1,1-dimethyl-ethoxy)-pyridin-2-ylamino]-1-methyl-6-oxo-1,6-dihydro-pyridazin-3-yl}-2-hydroxymethyl-phenyl)-2H-phthalazin-1-one]: the IC50 under setting [1] was 52 nM.
Turning to `Cn1nc(-c2cccc(-n3ncc4cc(C(C)(C)C)cc(F)c4c3=O)c2CO)cc(Nc2ccc(OC(C)(C)CN3CCC3)cn2)c1=O` [I-13, 2-(3-{5-[5-(2-azetidin-1-yl-1,1-dimethyl-ethoxy)-pyridin-2-ylamino]-1-methyl-6-oxo-1,6-dihydro-pyridazin-3-yl}-2-hydroxymethyl-phenyl)-6-tert-butyl-8-fluoro-2H-phthalazin-1-one], the IC50 under setting [1] came out at 9 nM.
For `Cn1nc(-c2cccc(-n3ncc4cc(C(C)(C)C)cc(F)c4c3=O)c2CO)cc(Nc2ccc(OCC(C)(C)O)cn2)c1=O` [I-14, 6-tert-butyl-8-fluoro-2-(2-hydroxymethyl-3-{5-[5-(2-hydroxy-2-methyl-propoxy)-pyridin-2-ylamino]-1-methyl-6-oxo-1,6-dihydro-pyridazin-3-yl}-phenyl)-2H-phthalazin-1-one], the IC50 under setting [1] was determined as 65 nM.
For `Cn1nc(-c2cccc(-n3ccc4cc(C(C)(C)C#N)cc(F)c4c3=O)c2CO)cc(Nc2ccc(C(=O)N3CCOCC3)cn2)c1=O` [I-15, 2-[8-fluoro-2-(2-hydroxymethyl-3-{1-methyl-5-[5-(morpholine-4-carbonyl)-pyridin-2-ylamino]-6-oxo-1,6-dihydro-pyridazin-3-yl}-phenyl)-1-oxo-1,2-dihydro-isoquinolin-6-yl]-2-methyl-propionitrile], the IC50 under setting [1] is 163 nM.
Same read-out and setting: the value for `COC[C@H](O)COc1ccc(Nc2cc(-c3cccc(-n4ncc5cc(C(C)(C)C)cc(F)c5c4=O)c3CO)nn(C)c2=O)nc1` [I-16, 6-tert-Butyl-8-fluoro-2-(3-{5-[5-((S)-2-hydroxy-3-methoxy-propoxy)-pyridin-2-ylamino]-1-methyl-6-oxo-1,6-dihydro-pyridazin-3-yl}-2-hydroxymethyl-phenyl)-2H-phthalazin-1-one] was 26 nM.
Turning to `COC[C@@H](O)COc1ccc(Nc2cc(-c3cccc(-n4ncc5cc(C(C)(C)C)cc(F)c5c4=O)c3CO)nn(C)c2=O)nc1` [I-17], under setting [1], the IC50 was 41 nM.
On the same count and under the same terms, the value for `CN1CCC[C@H]1c1ccc(Nc2cc(-c3cccc(-n4ncc5cc(C(C)(C)C)cc(F)c5c4=O)c3CO)nn(C)c2=O)nc1` [I-18, 6-tert-Butyl-8-fluoro-2-(2-hydroxymethyl-3-{1-methyl-5-[5-((S)-1-methyl-pyrrolidin-2-yl)-pyridin-2-ylamino]-6-oxo-1,6-dihydro-pyridazin-3-yl}-phenyl)-2H-phthalazin-1-one] was 3 nM; that for `CN1CCC[C@@H]1c1ccc(Nc2cc(-c3cccc(-n4ncc5cc(C(C)(C)C)cc(F)c5c4=O)c3CO)nn(C)c2=O)nc1` [I-19, 6-tert-Butyl-8-fluoro-2-(2-hydroxymethyl-3-{1-methyl-5-[5-((R)-1-methyl-pyrrolidin-2-yl)-pyridin-2-ylamino]-6-oxo-1,6-dihydro-pyridazin-3-yl}-phenyl)-2H-phthalazin-1-one] was 7 nM.
For `CN(C)C(=O)c1ccc(Nc2cc(-c3cccc(-n4ncc5cc(C(C)(C)C)cc(F)c5c4=O)c3CO)nn(C)c2=O)nc1` [I-20], under setting [1], the IC50 worked out at 15 nM.
Consider `Cn1nc(-c2cccc(-n3ncc4cc(C(C)(C)C)cc(F)c4c3=O)c2CO)cc(Nc2ccc(C(=O)N3CCC(C)(O)CC3)cn2)c1=O` [I-21, 6-tert-butyl-8-fluoro-2-(2-hydroxymethyl-3-{5-[5-(4-hydroxy-4-methyl-piperidine-1-carbonyl)-pyridin-2-ylamino]-1-methyl-6-oxo-1,6-dihydro-pyridazin-3-yl}-phenyl)-2H-phthalazin-1-one], for which, under setting [1], the IC50 is 109 nM.
For the compound `CN1CC2(C1)CN(c1ccc(Nc3cc(-c4cccc(-n5ncc6cc(C(C)(C)C)cc(F)c6c5=O)c4CO)nn(C)c3=O)nc1)C2` [I-22, 6-tert-butyl-8-fluoro-2-(2-hydroxymethyl-3-{1-methyl-5-[5-(6-methyl-2,6-diaza-spiro[3.3]hept-2-yl)-pyridin-2-ylamino]-6-oxo-1,6-dihydro-pyridazin-3-yl}-phenyl)-2H-phthalazin-1-one], under setting [1], the IC50 worked out at 33 nM.
With `CCS(=O)(=O)c1ccc(Nc2cc(-c3cccc(-n4ncc5cc(C(C)(C)C)cc(F)c5c4=O)c3CO)nn(C)c2=O)nc1` [I-23, 6-tert-Butyl-2-{3-[5-(5-ethanesulfonyl-pyridin-2-ylamino)-1-methyl-6-oxo-1,6-dihydro-pyridazin-3-yl]-2-hydroxymethyl-phenyl}-8-fluoro-2H-phthalazin-1-one], under setting [1], the IC50 came out at 60 nM.
As for `CC(C)S(=O)(=O)c1ccc(Nc2cc(-c3cccc(-n4ncc5cc(C(C)(C)C)cc(F)c5c4=O)c3CO)nn(C)c2=O)nc1` [I-24, 6-tert-Butyl-8-fluoro-2-(2-hydroxymethyl-3-{1-methyl-6-oxo-5-[5-(propane-2-sulfonyl)-pyridin-2-ylamino]-1,6-dihydro-pyridazin-3-yl}-phenyl)-2H-phthalazin-1-one], the IC50 under setting [1] is 116 nM.
For `Cn1nc(-c2cccc(-n3ncc4cc(C(C)(C)C)cc(F)c4c3=O)c2CO)cc(Nc2ccc(S(=O)(=O)CCO)cn2)c1=O` [I-26, 6-tert-Butyl-8-fluoro-2-(3-{5-[5-(2-hydroxyethanesulfonyl)-pyridin-2-ylamino]-1-methyl-6-oxo-1,6-dihydro-pyridazin-3-yl}-2-hydroxymethyl-phenyl)-2H-phthalazin-1-one], the IC50 under setting [1] is 152 nM.
The same measure, in the same setting: the value for `CC(C)N1CCN(c2ccc(Nc3cc(-c4cccc(-n5ncc6cc(C(C)(C)C)cc(F)c6c5=O)c4CO)nn(C)c3=O)nc2)CC1` [I-27, 6-tert-Butyl-8-fluoro-2-(2-hydroxymethyl-3-{5-[5-(4-isopropyl-piperazin-1-yl)-pyridin-2-ylamino]-1-methyl-6-oxo-1,6-dihydro-pyridazin-3-yl}-phenyl)-2H-phthalazin-1-one HCl] was 89 nM; that for `CN1CCC(c2ccc(Nc3cc(-c4cccc(-n5ncc6cc(C(C)(C)C)cc(F)c6c5=O)c4CO)nn(C)c3=O)nc2)C1` (centres unmarked) [I-28, 6-tert-Butyl-8-fluoro-2-(2-hydroxymethyl-3-{1-methyl-5-[5-(1-methyl-pyrrolidin-3-yl)-pyridin-2-ylamino]-6-oxo-1,6-dihydro-pyridazin-3-yl}-phenyl)-2H-phthalazin-1-one] was 6 nM.
Consider `CC(C)N1CCC(c2ccc(Nc3cc(-c4cccc(-n5ncc6cc(C(C)(C)C)cc(F)c6c5=O)c4CO)nn(C)c3=O)nc2)CC1` [I-29, 6-tert-Butyl-8-fluoro-2-{2-hydroxymethyl-3-[5-(1′-isopropyl-1′,2′,3′,4′,5′,6′-hexahydro-[3,4′]bipyridinyl-6-ylamino)-1-methyl-6-oxo-1,6-dihydro-pyridazin-3-yl]-phenyl}-2H-phthalazin-1-one], for which the IC50 under setting [1] stood at 15 nM.

Values taken from patent publication US8481540B2, “Inhibitors of bruton's tyrosine kinase” (Hoffmann-La Roche Inc., priority 2010, dated 2013).
